The target of series [1] is T1, ATP-dependent translocase ABCB1 (Homo sapiens, UniProt P08183). As to the kind of experiment: Inhibition of MDR1-mediated efflux-pump activity in mouse L5178Y cells expressing human MDR1 assessed as side scattered light at 2 uM preincubated for 10 mins followed by rhodamine-123 addition measured after 20 mins by flow cytometry (reference value: 194.6 to 286.4). The format is cell-based.

Series [2] in a line: Antiproliferative activity against mouse L5178Y cells expressing human MDR1 measured after 72 hrs by MTT assay. The format is functional, cell-based. (Tetrazolium assays rely on reduction of a dye to a coloured formazan, in cell work by metabolically active cells.)
Series [3] deals with T1, ATP-dependent translocase ABCB1. As to the kind of experiment: Inhibition of MDR1-mediated efflux-pump activity in mouse L5178Y cells expressing human MDR1 assessed as fluorescence activity ratio at 2 uM preincubated for 10 mins followed by rhodamine-123 addition measured after 20 mins by flow cytometry. It counts as cell-based. (In general: A flow cytometer gives signals particle by particle.)

The target is the same in series [4]. As to the kind of experiment: Inhibition of MDR1-mediated efflux-pump activity in mouse L5178Y cells expressing human MDR1 assessed as forward scattered light at 20 uM preincubated for 10 mins followed by rhodamine-123 addition measured after 20 mins by flow cytometry (reference value: 455.7 to 509.9). It counts as cell-based.
For series [5] the target is unchanged. The series is described as follows: Inhibition of MDR1-mediated efflux-pump activity in mouse L5178Y cells expressing human MDR1 assessed as fluorescence activity ratio at 20 uM preincubated for 10 mins followed by rhodamine-123 addition measured after 20 mins by flow cytometry. It counts as cell-based.
Series [6] shares this target. The series is described as follows: Inhibition of MDR1-mediated efflux-pump activity in mouse L5178Y cells expressing human MDR1 assessed as mean fluorescence intensity at 2 uM preincubated for 10 mins followed by rhodamine-123 addition measured after 20 mins by flow cytometry (reference value: 7.1 to 18.6). The format is cell-based.
For series [7] the target is unchanged. As to the kind of experiment: Inhibition of MDR1-mediated efflux-pump activity in mouse L5178Y cells expressing human MDR1 assessed as mean fluorescence intensity at 20 uM preincubated for 10 mins followed by rhodamine-123 addition measured after 20 mins by flow cytometry (reference value: 7.1 to 18.6). The format is cell-based.
Series [8] shares this target. As to the kind of experiment: Inhibition of MDR1-mediated efflux-pump activity in mouse L5178Y cells expressing human MDR1 assessed as forward scattered light at 2 uM preincubated for 10 mins followed by rhodamine-123 addition measured after 20 mins by flow cytometry (reference value: 455.7 to 509.9). The format is cell-based.
A short description of series [9]: Antiproliferative activity against mouse L5178Y cells measured after 72 hrs by MTT assay. The format is functional, cell-based.
For series [10], the target named is T1, ATP-dependent translocase ABCB1. As to the kind of experiment: Inhibition of MDR1-mediated efflux-pump activity in mouse L5178Y cells expressing human MDR1 assessed as side scattered light at 20 uM preincubated for 10 mins followed by rhodamine-123 addition measured after 20 mins by flow cytometry (reference value: 194.6 to 286.4). It counts as cell-based.

T1 sequence (P08183 whole entry): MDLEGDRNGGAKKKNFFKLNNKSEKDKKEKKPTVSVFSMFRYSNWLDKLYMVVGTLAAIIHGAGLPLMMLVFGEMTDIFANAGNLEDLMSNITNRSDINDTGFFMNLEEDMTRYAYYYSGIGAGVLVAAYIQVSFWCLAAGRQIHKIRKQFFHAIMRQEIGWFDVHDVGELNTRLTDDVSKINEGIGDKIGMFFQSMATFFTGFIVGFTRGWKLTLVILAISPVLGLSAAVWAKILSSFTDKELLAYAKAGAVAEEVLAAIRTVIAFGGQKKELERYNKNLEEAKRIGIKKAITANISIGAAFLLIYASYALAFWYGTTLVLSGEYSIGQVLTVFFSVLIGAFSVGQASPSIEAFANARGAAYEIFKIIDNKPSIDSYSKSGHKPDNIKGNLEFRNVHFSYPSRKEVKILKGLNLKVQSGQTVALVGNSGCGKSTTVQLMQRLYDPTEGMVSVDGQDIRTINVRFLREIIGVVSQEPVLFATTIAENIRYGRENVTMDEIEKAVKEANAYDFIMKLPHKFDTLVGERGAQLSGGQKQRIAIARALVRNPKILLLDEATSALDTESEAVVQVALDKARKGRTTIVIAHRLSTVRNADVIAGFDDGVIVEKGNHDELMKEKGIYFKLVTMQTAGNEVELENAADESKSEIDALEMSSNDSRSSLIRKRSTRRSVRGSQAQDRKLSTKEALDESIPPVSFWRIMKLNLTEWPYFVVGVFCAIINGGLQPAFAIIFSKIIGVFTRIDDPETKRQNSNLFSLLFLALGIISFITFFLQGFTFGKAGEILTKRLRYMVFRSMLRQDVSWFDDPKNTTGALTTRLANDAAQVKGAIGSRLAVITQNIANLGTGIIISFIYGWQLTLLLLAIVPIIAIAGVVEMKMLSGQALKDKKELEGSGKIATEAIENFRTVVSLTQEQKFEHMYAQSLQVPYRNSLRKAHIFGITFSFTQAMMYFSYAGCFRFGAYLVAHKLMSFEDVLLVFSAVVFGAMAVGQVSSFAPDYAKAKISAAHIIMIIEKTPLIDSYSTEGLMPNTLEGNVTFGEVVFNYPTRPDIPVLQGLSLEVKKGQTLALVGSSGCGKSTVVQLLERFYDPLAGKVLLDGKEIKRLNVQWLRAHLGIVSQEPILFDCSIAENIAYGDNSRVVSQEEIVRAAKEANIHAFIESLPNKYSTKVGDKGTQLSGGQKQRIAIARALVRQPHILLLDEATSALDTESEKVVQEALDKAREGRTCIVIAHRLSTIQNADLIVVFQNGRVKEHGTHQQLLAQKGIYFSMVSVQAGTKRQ

By IC50 is commonly meant the concentration at which inhibition is half-maximal. Low readings indicate greater potency, high ones weaker potency. As to `CO[C@H]1C=C2[C@@H](CC[C@H](OC(=O)c3ccccc3)C2(C)C)[C@]2(C)CC[C@]3(C)[C@@H]([C@H](C)C/C=C/C(C)(C)O)CC[C@@]3(C)[C@H]12`, the Activity in [1] worked out at 233.1; in [4] it was 444.8; in series [8], 454.2; in series [10], 235.1. Moreover, the IC50 is 130 µM in series [2] and 108 µM in [9]. Further, the values for the Ratio in series [3] and in series [5] were 1 and 7.8, respectively. Besides, the Flu intensity is reported as 17.9 in series [6] and 140 in series [7].

With `CC(=O)O[C@H]1C=C2[C@@H](CC[C@H](OC(C)=O)C2(C)C)[C@]2(C)CC[C@]3(C)[C@@H]([C@H](C)C[C@H](C=C(C)C)OC(C)=O)CC[C@@]3(C)[C@H]12` [TRIACETYLBALSAMINOL F], the Activity was found to be 182.1 in series [1], 533.5 in [4], 541.9 in series [8] and 179.9 in series [10]. The half-maximal inhibitory concentration (IC50) in series [2] and in series [9] was > 133 µM each time. Moreover, the Ratio in [3] stood at 3; in series [5] it was 15. For the same molecule, the Flu intensity in [6] was found to be 20; in series [7] it was 100.6.

Consider `CC(=O)C[C@@H](C)[C@H]1CC[C@@]2(C)[C@@H]3C(=O)C=C4[C@@H](CC[C@H](O)[C@]4(C)CO)[C@]3(C)CC[C@]12C` [BALSAMINOL D], for which the Activity was 254.3 in series [1], 434.2 in [4], 439.9 in [8] and 256.5 in series [10]. Besides, the half-maximal inhibitory concentration (IC50) in series [2] was determined as 67.1 µM; in [9], 27.8 µM. The values for the Ratio in [3] and in [5] were 1 and 1.9, respectively. Also, the Flu intensity in series [6] is given as 10.3; in series [7], 25.9.

Regarding `CC(C)=C[C@@H](C[C@@H](C)[C@H]1CC[C@@]2(C)[C@@H]3[C@@H](OC(=O)c4ccccc4)C=C4[C@@H](CC[C@H](OC(=O)c5ccccc5)C4(C)C)[C@]3(C)CC[C@]12C)OC(=O)c1ccccc1` [TRIBENZOYLBALSAMINOL F], the Activity came out at 188.7 in [1], 538.1 in series [4], 524.2 in [8] and 181.7 in [10]. Besides, the results for the concentration for half-maximal inhibition (IC50) in series [2] and in [9] were 87.9 µM and 74.7 µM, respectively. Further, the Ratio in [3] is 1.3; in series [5] it was 1.1. The Flu intensity in [6] is recorded as 7.6; in [7], 7.1.

As to `CC(C)=C[C@H](O)C[C@@H](C)[C@H]1CC[C@@]2(C)[C@@H]3[C@@H](O[C@H]4O[C@@H](CO)[C@H](O)[C@H](O)[C@@H]4O)C=C4[C@@H](CC[C@H](O)C4(C)C)[C@]3(C)CC[C@]12C`, the Activity in [1] amounted to 267.4; in [4], 457.9; in series [8], 443.8; in series [10] it was 277.2. The IC50 in [2] is 42.6 µM; in series [9], 18.7 µM. For the same molecule, the Ratio in [3] was 0.9; in series [5] it was 37.2. The Flu intensity in series [6] is recorded as 11.5; in [7], 487.1.

As for `CO[C@H]1C=C2[C@@H](CC[C@H](OC(=O)c3ccc([N+](=O)[O-])cc3)C2(C)C)[C@]2(C)CC[C@]3(C)[C@@H]([C@H](C)C[C@H](C=C(C)C)OC(=O)c4ccc([N+](=O)[O-])cc4)CC[C@@]3(C)[C@H]12` [KARAVOATE J], the Activity in [1] is reported as 186.3; in series [4], 537.3; in [8], 543.4; in series [10] it was 184.1. Further, the half-maximal inhibitory concentration (IC50) in series [2] is 87.9 µM; in series [9] it was 59.4 µM. For the same molecule, the Ratio in [3] came to 1.4; in [5] it was 2.1. The Flu intensity in series [6] is listed as 9.5; in [7], 14.3.

On to `CO[C@H]1C=C2[C@@H](CC[C@H](OC(=O)c3ccc(Cl)cc3)C2(C)C)[C@]2(C)CC[C@]3(C)[C@@H]([C@H](C)C[C@H](C=C(C)C)OC(=O)c4ccc(Cl)cc4)CC[C@@]3(C)[C@H]12` [KARAVOATE L], for which the Activity was 206.4 in [1], 512.2 in series [4], 504.6 in [8] and 202.4 in [10]. Further, the half-maximal inhibitory concentration (IC50) in [2] and in [9] was > 133 µM in each case. Besides, the Ratio in series [3] is recorded as 1; in series [5] it was 1.2. Further, the Flu intensity is 8.1 in [6] and 9 in series [7].

`CO[C@H]1C=C2[C@@H](CC[C@H](OC(=O)c3ccccc3)C2(C)C)[C@]2(C)CC[C@]3(C)[C@@H]([C@H](C)C[C@H](C=C(C)C)OC(=O)c4ccccc4)CC[C@@]3(C)[C@H]12` [KARAVOATE H]: the Activity in series [1] is on record as 200.4; in [4], 519.8; in series [8] it was 504.9; in series [10], 215.4. Also, the IC50 in series [2] was 96.4 µM; in series [9], > 133 µM. In addition, the Ratio in [3] is reported as 1.2; in series [5] it was 1.3. Moreover, the Flu intensity in [6] came out at 9; in [7], 10.4.

Take `CO[C@H]1C=C2[C@@H](CC[C@H](O)C2(C)C)[C@]2(C)CC[C@]3(C)[C@@H]([C@H](C)C[C@H](C=C(C)C)OC(=O)c4ccc(Cl)cc4)CC[C@@]3(C)[C@H]12` [KARAVOATE K]: the Activity in [1] is 207; in [4], 511.1; in [8] it was 517.9; in series [10], 210.8. Also, the figures for the concentration for half-maximal inhibition (IC50) in series [2] and in series [9] were 93.2 µM and 63.4 µM, respectively. Further, the Ratio in series [3] came out at 1.4; in [5], 1.6. Moreover, the figures for the Flu intensity in [6] and in series [7] were 10.7 and 12.2, respectively.

Regarding `CCCC(=O)O[C@H]1CC[C@@H]2C(=C[C@H](OC)[C@@H]3[C@@]2(C)CC[C@]2(C)[C@@H]([C@H](C)C[C@H](C=C(C)C)OC(=O)CCC)CC[C@@]32C)C1(C)C` [KARAVOATE F], the Activity in series [1] worked out at 218.3; in series [4], 541; in series [8] it was 542.6; in series [10] it was 218.7. Further, the values for the IC50 in [2] and in [9] were > 133 µM and 93.2 µM, respectively. For the same molecule, the Ratio in series [3] is recorded as 1.4; in [5], 1.6. In addition, the values for the Flu intensity in [6] and in [7] were 10.8 and 12.3, respectively.

With `COc1ccc(C(=O)O[C@H]2CC[C@@H]3C(=C[C@H](OC)[C@@H]4[C@@]3(C)CC[C@]3(C)[C@@H]([C@H](C)C[C@H](C=C(C)C)OC(=O)c5ccc(OC)cc5)CC[C@@]43C)C2(C)C)cc1` [KARAVOATE N], the Activity in [1] is given as 184.1; in series [4], 548.9; in series [8], 528.1; in [10], 186.7. In addition, the values for the half-inhibitory concentration (IC50) in series [2] and in series [9] were > 133 µM and 74.6 µM, respectively. Further, the Ratio was 0.9 in [3] and 1.4 in series [5]. Moreover, the results for the Flu intensity in series [6] and in series [7] were 6.3 and 9.7, respectively.

Consider `C=C(C)[C@@H](O)[C@H](O)C[C@@H](C)[C@H]1CC[C@@]2(C)[C@@H]3[C@@H](O)C=C4[C@@H](CC[C@H](O)[C@]4(C)CO)[C@]3(C)CC[C@]12C` [BALSAMINAPENTAOL A], for which the Activity was 254.7 in [1], 429 in series [4], 427.2 in series [8] and 252 in series [10]. For the same molecule, the IC50 in series [2] amounted to 29.3 µM; in series [9], 13.7 µM. For the same molecule, the values for the Ratio in [3] and in series [5] were 0.7 and 2.9, respectively. In addition, the results for the Flu intensity in [6] and in series [7] were 8.8 and 38.2, respectively.

In the case of `CC(C)=C[C@H](O)C[C@@H](C)[C@H]1CC[C@@]2(C)[C@@H]3[C@@H](O)C=C4[C@@H](CC[C@H](O)C4(C)C)[C@]3(C)CC[C@]12C` [BALSAMINOL F], the Activity came to 202.1 in series [1] and 490.7 in series [8]. Besides, the IC50 in series [2] stood at 20.8 µM; in series [9] it was 8.3 µM. Further, the Ratio in [3] is on record as 2.6. Further, in [6], the Flu intensity is 20.1.

These data come from ChEMBL document CHEMBL3860050, “Triterpenoids from Momordica balsamina: Reversal of ABCB1-mediated multidrug resistance” (Bioorg Med Chem, 2016).
